Source: BigSolDB 2.1

CC(=O)Oc1ccc(C(c2ccc(OC(C)=O)cc2)c2ccccn2)cc1
solubility (mole fraction)
Conditions | 273.15 K | 278.15 K | 283.15 K | 288.15 K | 293.15 K | 298.15 K | 303.15 K | 308.15 K | 313.15 K
in 1,4-dioxane | – | – | – | 0.00241 | 0.00274 | 0.00307 | 0.00343 | 0.00378 | 0.00424
in DMF | 0.00201 | 0.00228 | 0.00255 | 0.00291 | 0.00325 | 0.00368 | 0.00407 | 0.00447 | 0.00496
in NMP | 0.00187 | 0.0021 | 0.00236 | 0.00264 | 0.00295 | 0.0033 | 0.00372 | 0.00418 | 0.00474
in acetone | 0.00126 | 0.00153 | 0.00181 | 0.00212 | 0.00246 | 0.00281 | 0.00318 | 0.00359 | 0.00403
in acetonitrile | 0.000983 | 0.00115 | 0.00136 | 0.0016 | 0.00185 | 0.00215 | 0.00243 | 0.00274 | 0.00308
in ethanol | 4.5e-05 | 5.8e-05 | 7.5e-05 | 9.1e-05 | 0.00011 | 0.00013 | 0.000159 | 0.000194 | 0.00024
in ethyl acetate | 0.000724 | 0.000884 | 0.00107 | 0.00126 | 0.00148 | 0.00171 | 0.00198 | 0.00228 | 0.00263
in isopropanol | 3.8e-05 | 5.2e-05 | 6.5e-05 | 8.1e-05 | 9.8e-05 | 0.000118 | 0.000142 | 0.000166 | 0.000204
in methanol | 4.9e-05 | 6.6e-05 | 8.1e-05 | 0.000101 | 0.000123 | 0.000147 | 0.000171 | 0.000207 | 0.000254
in n-butanol | 7.1e-05 | 8.8e-05 | 0.000106 | 0.000131 | 0.00016 | 0.00019 | 0.000223 | 0.000269 | 0.000324
in n-propanol | 5.6e-05 | 7.3e-05 | 9.2e-05 | 0.000115 | 0.000141 | 0.00017 | 0.000199 | 0.000242 | 0.000304
in toluene | 0.00044 | 0.000533 | 0.000648 | 0.00076 | 0.000895 | 0.00105 | 0.00122 | 0.00141 | 0.00161
